Laboratory results published in ChEMBL document CHEMBL1177694, “Multivalent catanionic GalCer analogs derived from first generation dendrimeric phosphonic acids” (Bioorg Med Chem, 2010).

Legend:
[1] = Therapeutic index, ratio of CC50 for human CEM-SS cells to IC50 for HIV1 LAI infected in human CEM-SS cells; assay type: cell-based; conditions: CEM-SS cells (uninfected and infected with HIV1 LAI), read-out: Ratio CC50/IC50
[2] = tested on: Human immunodeficiency virus 1; test: Antiviral activity against HIV1 LAI infected in human CEM-SS cells assessed as inhibition of viral replication after 5 days by MTT assay; assay type: functional, organism-based; conditions: Human immunodeficiency virus 1, LAI, 120 h
[3] = Cytotoxicity against human CEM-SS cells after 5 days by MTT assay; assay type: cell-based

In the case of CCCC(C(=O)NCCc1ccc(OP(=S)(Oc2ccc(CCNC(=O)C(CCC)P(=O)(O)O)cc2)N(C)/N=C/c2ccc(OP3(Oc4ccc(/C=N/N(C)P(=S)(Oc5ccc(CCNC(=O)C(CCC)P(=O)(O)O)cc5)Oc5ccc(CCNC(=O)C(CCC)P(=O)(O)O)cc5)cc4)=NP(Oc4ccc(/C=N/N(C)P(=S)(Oc5ccc(CCNC(=O)C(CCC)P(=O)(O)O)cc5)Oc5ccc(CCNC(=O)C(CCC)P(=O)(O)O)cc5)cc4)(Oc4ccc(/C=N/N(C)P(=S)(Oc5ccc(CCNC(=O)C(CCC)P(=O)(O)O)cc5)Oc5ccc(CCNC(=O)C(CCC)P(=O)(O)O)cc5)cc4)=NP(Oc4ccc(/C=N/N(C)P(=S)(Oc5ccc(CCNC(=O)C(CCC)P(=O)(O)O)cc5)Oc5ccc(CCNC(=O)C(CCC)P(=O)(O)O)cc5)cc4)(Oc4ccc(/C=N/N(C)P(=S)(Oc5ccc(CCNC(=O)C(CCC)P(=O)(O)O)cc5)Oc5ccc(CCNC(=O)C(CCC)P(=O)(O)O)cc5)cc4)=N3)cc2)cc1)P(=O)(O)O (stereo not given), the selectivity ratio [1] is reported as > 67, the IC50 [2] is reported as 1500 nM and the CC50 at 120 h [3] is reported as > 100 µM.
Work on CCCCCCCCCC(C(=O)NCCc1ccc(OP(=S)(Oc2ccc(CCNC(=O)C(CCCCCCCCC)P(=O)(O)O)cc2)N(C)/N=C/c2ccc(OP3(Oc4ccc(/C=N/N(C)P(=S)(Oc5ccc(CCNC(=O)C(CCCCCCCCC)P(=O)(O)O)cc5)Oc5ccc(CCNC(=O)C(CCCCCCCCC)P(=O)(O)O)cc5)cc4)=NP(Oc4ccc(/C=N/N(C)P(=S)(Oc5ccc(CCNC(=O)C(CCCCCCCCC)P(=O)(O)O)cc5)Oc5ccc(CCNC(=O)C(CCCCCCCCC)P(=O)(O)O)cc5)cc4)(Oc4ccc(/C=N/N(C)P(=S)(Oc5ccc(CCNC(=O)C(CCCCCCCCC)P(=O)(O)O)cc5)Oc5ccc(CCNC(=O)C(CCCCCCCCC)P(=O)(O)O)cc5)cc4)=NP(Oc4ccc(/C=N/N(C)P(=S)(Oc5ccc(CCNC(=O)C(CCCCCCCCC)P(=O)(O)O)cc5)Oc5ccc(CCNC(=O)C(CCCCCCCCC)P(=O)(O)O)cc5)cc4)(Oc4ccc(/C=N/N(C)P(=S)(Oc5ccc(CCNC(=O)C(CCCCCCCCC)P(=O)(O)O)cc5)Oc5ccc(CCNC(=O)C(CCCCCCCCC)P(=O)(O)O)cc5)cc4)=N3)cc2)cc1)P(=O)(O)O.CCCCCCCCCCCCCCCCNOC(CO)C(O)C(OC1OC(CO)C(O)C(O)C1O)C(O)CO.CCCCCCCCCCCCCCCCNOC(CO)C(O)C(OC1OC(CO)C(O)C(O)C1O)C(O)CO.CCCCCCCCCCCCCCCCNOC(CO)C(O)C(OC1OC(CO)C(O)C(O)C1O)C(O)CO.CCCCCCCCCCCCCCCCNOC(CO)C(O)C(OC1OC(CO)C(O)C(O)C1O)C(O)CO.CCCCCCCCCCCCCCCCNOC(CO)C(O)C(OC1OC(CO)C(O)C(O)C1O)C(O)CO.CCCCCCCCCCCCCCCCNOC(CO)C(O)C(OC1OC(CO)C(O)C(O)C1O)C(O)CO (stereo not given) yielded a selectivity ratio [1] of 19.7, an IC50 [2] of 310 nM and a CC50 at 120 h [3] of 6.1 µM.
With CN(/N=C/c1ccc(OP2(Oc3ccc(/C=N/N(C)P(=S)(Oc4ccc(CCNC(=O)CP(=O)(O)O)cc4)Oc4ccc(CCNC(=O)CP(=O)(O)O)cc4)cc3)=NP(Oc3ccc(/C=N/N(C)P(=S)(Oc4ccc(CCNC(=O)CP(=O)(O)O)cc4)Oc4ccc(CCNC(=O)CP(=O)(O)O)cc4)cc3)(Oc3ccc(/C=N/N(C)P(=S)(Oc4ccc(CCNC(=O)CP(=O)(O)O)cc4)Oc4ccc(CCNC(=O)CP(=O)(O)O)cc4)cc3)=NP(Oc3ccc(/C=N/N(C)P(=S)(Oc4ccc(CCNC(=O)CP(=O)(O)O)cc4)Oc4ccc(CCNC(=O)CP(=O)(O)O)cc4)cc3)(Oc3ccc(/C=N/N(C)P(=S)(Oc4ccc(CCNC(=O)CP(=O)(O)O)cc4)Oc4ccc(CCNC(=O)CP(=O)(O)O)cc4)cc3)=N2)cc1)P(=S)(Oc1ccc(CCNC(=O)CP(=O)(O)O)cc1)Oc1ccc(CCNC(=O)CP(=O)(O)O)cc1 the selectivity ratio [1] was > 4, the IC50 [2] was 25000 nM and the CC50 at 120 h [3] was > 100 µM.
Work on CCCCCCCCCCCCCCCCNOC(CO)C(O)C(OC1OC(CO)C(O)C(O)C1O)C(O)CO.CCCCCCCCCCCCCCCCNOC(CO)C(O)C(OC1OC(CO)C(O)C(O)C1O)C(O)CO.CCCCCCCCCCCCCCCCNOC(CO)C(O)C(OC1OC(CO)C(O)C(O)C1O)C(O)CO.CCCCCCCCCCCCCCCCNOC(CO)C(O)C(OC1OC(CO)C(O)C(O)C1O)C(O)CO.CCCCCCCCCCCCCCCCNOC(CO)C(O)C(OC1OC(CO)C(O)C(O)C1O)C(O)CO.CCCCCCCCCCCCCCCCNOC(CO)C(O)C(OC1OC(CO)C(O)C(O)C1O)C(O)CO.CN(/N=C/c1ccc(OP2(Oc3ccc(/C=N/N(C)P(=S)(Oc4ccc(CCNC(=O)CP(=O)(O)O)cc4)Oc4ccc(CCNC(=O)CP(=O)(O)O)cc4)cc3)=NP(Oc3ccc(/C=N/N(C)P(=S)(Oc4ccc(CCNC(=O)CP(=O)(O)O)cc4)Oc4ccc(CCNC(=O)CP(=O)(O)O)cc4)cc3)(Oc3ccc(/C=N/N(C)P(=S)(Oc4ccc(CCNC(=O)CP(=O)(O)O)cc4)Oc4ccc(CCNC(=O)CP(=O)(O)O)cc4)cc3)=NP(Oc3ccc(/C=N/N(C)P(=S)(Oc4ccc(CCNC(=O)CP(=O)(O)O)cc4)Oc4ccc(CCNC(=O)CP(=O)(O)O)cc4)cc3)(Oc3ccc(/C=N/N(C)P(=S)(Oc4ccc(CCNC(=O)CP(=O)(O)O)cc4)Oc4ccc(CCNC(=O)CP(=O)(O)O)cc4)cc3)=N2)cc1)P(=S)(Oc1ccc(CCNC(=O)CP(=O)(O)O)cc1)Oc1ccc(CCNC(=O)CP(=O)(O)O)cc1 yielded a selectivity ratio [1] of 4.8, an IC50 [2] of 400 nM and a CC50 at 120 h [3] of 1.9 µM.
In the case of CCCCCCCCCCCCCCCCNOC(CO)C(O)C(OC1OC(CO)C(O)C(O)C1O)C(O)CO.CCCCCCCCCCCCCCCCNOC(CO)C(O)C(OC1OC(CO)C(O)C(O)C1O)C(O)CO.CCCCCCCCCCCCCCCCNOC(CO)C(O)C(OC1OC(CO)C(O)C(O)C1O)C(O)CO.CCCCCCCCCCCCCCCCNOC(CO)C(O)C(OC1OC(CO)C(O)C(O)C1O)C(O)CO.CCCCCCCCCCCCCCCCNOC(CO)C(O)C(OC1OC(CO)C(O)C(O)C1O)C(O)CO.CCCCCCCCCCCCCCCCNOC(CO)C(O)C(OC1OC(CO)C(O)C(O)C1O)C(O)CO.CN(/N=C/c1ccc(OP2(Oc3ccc(/C=N/N(C)P(=S)(Oc4ccc(/C=C/P(=O)(O)O)cc4)Oc4ccc(/C=C/P(=O)(O)O)cc4)cc3)=NP(Oc3ccc(/C=N/N(C)P(=S)(Oc4ccc(/C=C/P(=O)(O)O)cc4)Oc4ccc(/C=C/P(=O)(O)O)cc4)cc3)(Oc3ccc(/C=N/N(C)P(=S)(Oc4ccc(/C=C/P(=O)(O)O)cc4)Oc4ccc(/C=C/P(=O)(O)O)cc4)cc3)=NP(Oc3ccc(/C=N/N(C)P(=S)(Oc4ccc(/C=C/P(=O)(O)O)cc4)Oc4ccc(/C=C/P(=O)(O)O)cc4)cc3)(Oc3ccc(/C=N/N(C)P(=S)(Oc4ccc(/C=C/P(=O)(O)O)cc4)Oc4ccc(/C=C/P(=O)(O)O)cc4)cc3)=N2)cc1)P(=S)(Oc1ccc(/C=C\P(=O)(O)O)cc1)Oc1ccc(/C=C/P(=O)(O)O)cc1 (stereo not given), the selectivity ratio [1] is reported as 6.4, the IC50 [2] is reported as 250 nM and the CC50 at 120 h [3] is reported as 1.6 µM.
